# Target: T1, PDE9A2 (Homo sapiens, UniProt O76083)
# T1 construct: purchased Reaction Biology Corporation, Malvern, Pa
# Assay: Phosphodiesterase enzyme screening assay, PDE9A2
# Type: biochemical
# Conditions: Table 1; 10 concentrations; 4.0 μM cGMP substrate; 1 hour at R.T.; read-out: Band (PDE9A2 IC50)
# Description: Compounds of the invention were screened against PDE1A, PDE1B, PDE2A, PDE3A, PDE3B, PDE4A1A, PDE4B1, PDE4D3, PDE5A1, PDE6C, PDE7A, PDE8A1, PDE9A2, PDE10A2 AND PDE11A isoforms of the phosphodiesterase enzyme to determine activity and overall selectivity through comparative analysis. […] Where 8-methoxy-IBMX and Zaprinast were used as reference inhibitors.
# The phosphodiesterase enzyme isoforms were obtained from a commercial retailer (Reaction Biology Corporation, Malvern, Pa.) for use in the instant screening assay.
# The analysis was completed using the Caliper LabChip 3000 and a 12-sipper LabChip. LabChip assays are separations-based, meaning that the product and substrate are electrophoretically separated, thereby minimizing interferences and yielding the highest data quality available on any screening platform. […] High Z′ values, few false positives, few false negatives and analytical quality reproducibility are the reasons cited for the increasing reliance on the LabChip assays.
# The off-chip incubation mobility-shift phosphodiesterase assay uses a microfluidic chip to measure the conversion of a fluorescent cyclic AMP substrate to a 5′-AMP product, or a cyclic GMP substrate to a 5′-GMP product. The reaction mixture, from a microtiter plate well, is introduced through a capillary sipper onto the chip, where the fluorescent substrate and product are separated by electrophoresis and detected via laser-induced fluorescence. […] The precision of microfluidics allows researchers to detect subtle interactions between drug candidates and therapeutic targets.
# Reactions were carried out in 100 mM HEPES (pH 7.5), 5 mM MgCl2, 1 mM DTT, 0.003% Brij, 4.0 μM cGMP substrate. The reaction was started by addition of cGMP or cAMP and incubated for 1 hour at R.T. The reaction was terminated by the addition of stop buffer containing 100 mM HEPES (pH 7.5), 15 mM EDTA, 0.015% Brij-35, 5% DMSO. Cyclic AMP/GMP substrate and 5′-AMP/5′-GMP product were separated by charge using electrophoretic mobility shift. Product formed was compared to control wells to determine inhibition or enhancement of enzyme activity.
# Data points were averages of quadruplicate wells and error bars represented the SEM for each point.
# T1 sequence (O76083 1-533 isoform O76083-2): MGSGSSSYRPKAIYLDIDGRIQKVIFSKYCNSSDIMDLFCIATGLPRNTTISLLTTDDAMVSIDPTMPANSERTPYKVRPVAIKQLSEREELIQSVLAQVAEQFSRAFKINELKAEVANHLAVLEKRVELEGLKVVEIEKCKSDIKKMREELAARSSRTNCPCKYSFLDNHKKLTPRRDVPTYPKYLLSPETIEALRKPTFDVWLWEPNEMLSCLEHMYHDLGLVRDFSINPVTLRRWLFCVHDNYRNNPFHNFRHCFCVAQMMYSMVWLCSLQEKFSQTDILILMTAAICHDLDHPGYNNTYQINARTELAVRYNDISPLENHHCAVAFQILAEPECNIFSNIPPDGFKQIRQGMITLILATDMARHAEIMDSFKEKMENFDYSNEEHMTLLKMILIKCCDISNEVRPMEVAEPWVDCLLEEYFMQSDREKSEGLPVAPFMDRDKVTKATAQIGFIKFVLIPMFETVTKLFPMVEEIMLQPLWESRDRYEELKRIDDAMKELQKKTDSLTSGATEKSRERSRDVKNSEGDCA
row,IC50,Structure (SMILES)
1,< 1000 nM,"Cc1ccc(F)cc1-c1ncc2c(=O)[nH]c(C3CN(Cc4ncccn4)CC3C)nn12 (single isomer, unassigned; (+)) [(+)-7-(5-fluoro-2-methylphenyl)-2-((3,4-trans)-4-methyl-1-(pyrimidin-2-ylmethyl)pyrrolidin-3-yl)imidazo[1,5-f][1,2,4]triazin-4(3H)-one]"
2,1000 to 10000 nM,"CC1CN(Cc2ccccc2)CC1c1nn2c(C3CCN(C(=O)OC(C)(C)C)CC3)ncc2c(=O)[nH]1 (single isomer, unassigned; (+)) [(+)-tert-butyl 4-(2-((3,4-trans)-1-benzyl-4-methylpyrrolidin-3-yl)-4-oxo-3,4-dihydroimidazo[1,5-f][1,2,4]triazin-7-yl)piperidine-1-carboxylate]"
3,< 1000 nM,"CC1CN(C(C)c2ccccc2)CC1c1nn2c(C3CCOCC3)ncc2c(=O)[nH]1 (single isomer, unassigned; (-)) [listing 1 of 2 here]"
4,< 1000 nM,"CC1CN(C(C)c2ccccc2)CC1c1nn2c(C3CCOCC3)ncc2c(=O)[nH]1 (single isomer, unassigned; (-)) [listing 2 of 2 here]"
5,< 1000 nM,"CC1CN(Cc2ccccc2F)CC1c1nn2c(C3CCOCC3)ncc2c(=O)[nH]1 (single isomer, unassigned; (-)) [(−)-2-((3,4-trans)-1-(2-fluorobenzyl)-4-methylpyrrolidin-3-yl)-7-(tetrahydro-2H-pyran-4-yl)imidazo[5,1-f][1,2,4]triazin-4(3H)-one]"
6,< 1000 nM,"CC1CN(C(=O)c2ccc(F)cc2)CC1c1nn2c(C3CCOCC3)ncc2c(=O)[nH]1 (single isomer, unassigned; (-)) [(−)-2-((3,4-trans)-1-(4-fluorobenzoyl)-4-methylpyrrolidin-3-yl)-7-(tetrahydro-2H-pyran-4-yl)imidazo[5,1-f][1,2,4]triazin-4(3H)-one]"
7,< 1000 nM,"CC1CN(Cc2ccc(F)cc2)CC1c1nn2c(C3CCOCC3)ncc2c(=O)[nH]1 (single isomer, unassigned; (-)) [(−)-2-((3,4-trans)-1-(4-fluorobenzyl)-4-methylpyrrolidin-3-yl)-7-(tetrahydro-2H-pyran-4-yl)imidazo[5,1-f][1,2,4]triazin-4(3H)-one]"
8,1000 to 10000 nM,"CC1CN(S(=O)(=O)c2ccc(F)cc2)CC1c1nn2c(C3CCOCC3)ncc2c(=O)[nH]1 (single isomer, unassigned; (-)) [(−)-2-((3,4-trans)-1-((4-fluorophenyl)sulfonyl)-4-methylpyrrolidin-3-yl)-7-(tetrahydro-2H-pyran-4-yl)imidazo[5,1-f][1,2,4]triazin-4(3H)-one]"
9,< 1000 nM,"COc1cccc(CN2CC(C)C(c3nn4c(C5CCOCC5)ncc4c(=O)[nH]3)C2)n1 (single isomer, unassigned; (-)) [(−)-2-((3,4-trans)-1-((6-methoxypyridin-2-yl)methyl)-4-methylpyrrolidin-3-yl)-7-(tetrahydro-2H-pyran-4-yl)imidazo[5,1-f][1,2,4]triazin-4(3H)-one]"
10,< 1000 nM,"CCS(=O)(=O)N1CC(C)C(c2nn3c(C4CCOCC4)ncc3c(=O)[nH]2)C1 (single isomer, unassigned; (-)) [(−)-2-((3,4-trans)-1-(ethylsulfonyl)-4-methylpyrrolidin-3-yl)-7-(tetrahydro-2H-pyran-4-yl)imidazo[5,1-f][1,2,4]triazin-4(3H)-one]"
11,< 1000 nM,"CC1CN(Cc2ccc3nccn3n2)CC1c1nn2c(C3CCOCC3)ncc2c(=O)[nH]1 (single isomer, unassigned; (-)) [(−)-2-((3,4-trans)-1-(imidazo[1,2-b]pyridazin-6-ylmethyl)-4-methylpyrrolidin-3-yl)-7-(tetrahydro-2H-pyran-4-yl)imidazo[5,1-f][1,2,4]triazin-4(3H)-one]"
12,< 1000 nM,"CC1CN(C(=O)c2ccccc2)CC1c1nn2c(C3CCOCC3)ncc2c(=O)[nH]1 (single isomer, unassigned; (-)) [(−)-2-((3,4-trans)-1-benzoyl-4-methylpyrrolidin-3-yl)-7-(tetrahydro-2H-pyran-4-yl)imidazo[5,1-f][1,2,4]triazin-4(3H)-one]"
13,< 1000 nM,"CC1CN(Cc2ccccc2)CC1c1nn2c(C3CCC(F)(F)CC3)ncc2c(=O)[nH]1 (single isomer, unassigned; (-)) [(−)-2-((3,4-trans)-1-benzyl-4-methylpyrrolidin-3-yl)-7-(4,4-difluorocyclohexyl)imidazo[5,1-f][1,2,4]triazin-4(3H)-one]"
14,1000 to 10000 nM,"Cc1ccc(F)cc1-c1ncc2c(=O)[nH]c(C3CN(Cc4ccccc4)CC3C)nn12 (single isomer, unassigned; (-)) [(−)-2-((3,4-trans)-1-benzyl-4-methylpyrrolidin-3-yl)-7-(5-fluoro-2-methylphenyl)imidazo[1,5-f][1,2,4]triazin-4(3H)-one]"
15,< 1000 nM,"CC1CN(C(=O)c2ccncc2)CC1c1nn2c(C3CCOCC3)ncc2c(=O)[nH]1 (single isomer, unassigned; (-)) [(−)-2-((3,4-trans)-1-isonicotinoyl-4-methylpyrrolidin-3-yl)-7-(tetrahydro-2H-pyran-4-yl)imidazo[5,1-f][1,2,4]triazin-4(3H)-one]"
16,< 1000 nM,"CC1CN(C(=O)c2ccccc2C#N)CC1c1nn2c(C3CCOCC3)ncc2c(=O)[nH]1 (single isomer, unassigned; (-)) [(−)-2-((3,4-trans)-3-methyl-4-(4-oxo-7-(tetrahydro-2H-pyran-4-yl)-3,4-dihydroimidazo[5,1-f][1,2,4]triazin-2-yl)pyrrolidine-1-carbonyl)benzonitrile]"
17,1000 to 10000 nM,"CC1CN(S(=O)(=O)c2ccccc2)CC1c1nn2c(C3CCOCC3)ncc2c(=O)[nH]1 (single isomer, unassigned; (-)) [(−)-2-((3,4-trans)-4-methyl-1-(phenylsulfonyl)pyrrolidin-3-yl)-7-(tetrahydro-2H-pyran-4-yl)imidazo[5,1-f][1,2,4]triazin-4(3H)-one]"
18,< 1000 nM,"CC1CN(C(=O)c2cnccn2)CC1c1nn2c(C3CCOCC3)ncc2c(=O)[nH]1 (single isomer, unassigned; (-)) [(−)-2-((3,4-trans)-4-methyl-1-(pyrazine-2-carbonyl)pyrrolidin-3-yl)-7-(tetrahydro-2H-pyran-4-yl)imidazo[5,1-f][1,2,4]triazin-4(3H)-one]"
19,< 1000 nM,"CC1CN(Cc2ccccn2)CC1c1nn2c(C3CCOCC3)ncc2c(=O)[nH]1 (single isomer, unassigned; (-)) [(−)-2-((3,4-trans)-4-methyl-1-(pyridin-2-ylmethyl)pyrrolidin-3-yl)-7-(tetrahydro-2H-pyran-4-yl)imidazo[5,1-f][1,2,4]triazin-4(3H)-one]"
20,< 1000 nM,"CC1CN(C(=O)c2ncccn2)CC1c1nn2c(C3CCOCC3)ncc2c(=O)[nH]1 (single isomer, unassigned; (-)) [(−)-2-((3,4-trans)-4-methyl-1-(pyrimidine-2-carbonyl)pyrrolidin-3-yl)-7-(tetrahydro-2H-pyran-4-yl)imidazo[5,1-f][1,2,4]triazin-4(3H)-one]"

row,Structure (SMILES),IC50
1,"CC1CN(Cc2ccccc2)CC1c1nn2c(C3CCOC3)ncc2c(=O)[nH]1 (single isomer, unassigned; (-)) [(−)-2-(1-(3,4-trans)-benzyl-4-methylpyrrolidin-3-yl)-7-(tetrahydrofuran-3-yl)imidazo[5,1-f][1,2,4]triazin-4(3H)-one]",1000 to 10000 nM

# Same assay, conditions: read-out: Band (PDE9A2 IC50)
row,IC50,Structure (SMILES)
1,< 1000 nM,"CC1CN(Cc2cn3ccccc3n2)CC1c1nn2c(-c3cccc(F)c3)ncc2c(=O)[nH]1 (single isomer, unassigned; (+)) [(+)-7-(3-fluorophenyl)-2-((3,4-trans)-1-(imidazo[1,2-a]pyridin-2-ylmethyl)-4-methylpyrrolidin-3-yl)imidazo[5,1-f][1,2,4]triazin-4(3H)-one]"
2,< 1000 nM,"CC1CN(Cc2ncccn2)CC1c1nn2c(-c3cccc(F)c3)ncc2c(=O)[nH]1 (single isomer, unassigned; (+)) [(+)-7-(3-fluorophenyl)-2-((3,4-trans)-4-methyl-1-(pyrimidin-2-ylmethyl)pyrrolidin-3-yl)imidazo[5,1-f][1,2,4]triazin-4(3H)-one]"
3,1000 to 10000 nM,"CC1CN(Cc2ccccn2)CC1c1nn2c(-c3ccc(F)cc3)ncc2c(=O)[nH]1 (single isomer, unassigned; (+)) [(+)-7-(4-fluorophenyl)-2-((3,4-trans)-4-methyl-1-(pyridin-2-ylmethyl)pyrrolidin-3-yl)imidazo[5,1-f][1,2,4]triazin-4(3H)-one]"
4,< 1000 nM,"CC1CN(Cc2cccnc2)CC1c1nn2c(-c3ccc(F)cc3)ncc2c(=O)[nH]1 (single isomer, unassigned; (+)) [(+)-7-(4-fluorophenyl)-2-((3,4-trans)-4-methyl-1-(pyridin-3-ylmethyl)pyrrolidin-3-yl)imidazo[5,1-f][1,2,4]triazin-4(3H)-one]"

# From patent publication US9969742B2, “Imidazotriazinone compounds” (Ironwood Pharmaceuticals, Inc., priority 2012, dated 2018)
